The compounds below were run against T1, human P2X3 (Homo sapiens, UniProt P56373) (assay: Intracellular Calcium Measurement to Assess Antagonist Affinity (FLIPR, Fluo-4, agonist α,β-meATP)). Details: Intracellular Calcium Measurement to Assess Antagonist Affinity assay; [α,β-meATP]final=EC50.
T1 construct: expressed in transfected cells
T1 sequence (P56373 1-397): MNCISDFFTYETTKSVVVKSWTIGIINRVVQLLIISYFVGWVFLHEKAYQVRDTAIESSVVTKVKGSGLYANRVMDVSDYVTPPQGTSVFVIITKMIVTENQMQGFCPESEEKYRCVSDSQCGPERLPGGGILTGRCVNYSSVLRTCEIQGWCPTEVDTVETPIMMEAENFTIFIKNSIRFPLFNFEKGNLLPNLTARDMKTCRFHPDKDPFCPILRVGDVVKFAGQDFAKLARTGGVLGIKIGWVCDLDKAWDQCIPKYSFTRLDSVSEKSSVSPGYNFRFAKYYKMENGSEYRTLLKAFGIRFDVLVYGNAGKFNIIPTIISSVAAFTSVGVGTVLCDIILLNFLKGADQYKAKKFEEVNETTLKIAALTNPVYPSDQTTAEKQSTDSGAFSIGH
Format: cell-based
Text: Generation of a Human P2X3 and P2X2/3 Stable Cell Line—Human P2X3 receptor cDNA (Accession number NM_002559) was subcloned as a 5′XhoI and 3′HindIII fragment into the expression vector pcDNA5/FRT (Invitrogen). Human P2X2 receptor cDNA (Accession number NM_174873) was subcloned as a 5′EcoRI and 3′NotI fragment into the expression vector pIRESneo2 (BD Biosciences Clontech). The human P2X3 expression construct was transfected using Lipofectamine 2000 (Invitrogen) into Flp-in—293 cells (Invitrogen) according to the manufacturer's directions. Cells positive for flp-mediated recombination of […] P2X3 were selected using 150 μg/ml hygromycin. The stable human P2X3 cell line was co-transfected with the human P2X2 expression construct using Lipofectamine 2000 as above and co-transfected cells selected using […] hygromycin and 1 mg/ml G418. The stable P2X3 cell line was propagated in DMEM, 10% FBS, 100 μg/ml hygromycin, and 100 units/ml penicillin and 100 μg/ml streptomycin, and maintained at 37° and 95% humidity. The stable P2X2/3 cell line was propagated as above with the addition of 500 μg/ml G418.
Intracellular Calcium Measurement to Assess Antagonist Affinity—A fluorescent imaging plate reader (FLIPR; Molecular Devices) was used to monitor intracellular calcium levels using the calcium-chelating dye Fluo-4 (Molecular Probes). The excitation and emission wavelengths used to monitor fluorescence were 488 nm and 530 nm, respectively. Cells expressing either human P2X3 or human P2X2/3 were plated at a density of 20,000 cells/well (20 μl/well) in 384-well black-walled plates approximately 20 hours before beginning the assay. On the day of the assay 20 μl of loading buffer (Hank's balanced salt solution, 2.5 mM CaCl2, 20 mM HEPES, 0.1% BSA, 2.5 mM probenecid, TR-40, Fluo-4, and 138 mM NMDG substituted for NaCl) is added and cells dye-loaded for […] in the dark at room temperature. Ten minutes prior to adding agonist, the antagonist was added in a volume of 10 μl and allowed to incubate at room temperature. During this period fluorescence data is collected at 3 sec intervals followed by 10 sec intervals. The agonist, α,β-meATP, is added at a 6× concentration ([α,β-meATP]final=EC50). Following agonist addition fluorescence was measured at 5 sec intervals and analyzed based on the increase in peak relative fluorescence units (RFU) compared to the basal fluorescence. Peak fluorescence was used to determine the inhibitory effect at each concentration of antagonist by the following equation: % Inhibition=100*(1−((RFU(drug)−RFU(control))/(RFU(DMSO only)−RFU(control))))

Cc1ccc(-c2cc(C(=O)N[C@H](C)c3ccc(F)cn3)cc(C3=NO[C@H](c4ccccn4)C3)c2)nc1 [N-[(1R)-1-(5-fluoropyridin-2-yl)ethyl]-3-(5-methylpyridin-2-yl)-5-[(5S)-5-pyridin-2-yl-4,5-dihydroisoxazol-3-yl]benzamide] was tested. Which IC50 did it give?
Its IC50 is 20 nM.

For Cc1ccc(-c2cc(C(=O)N[C@H](C)c3ncc(F)cc3F)cc(C3=NOC4(CCC4)C3)c2)nc1 [N-[(1R)-1-(3,5-difluoropyridin-2-yl)ethyl]-3-(5-methylpyridin-2-yl)-5-(5-oxa-6-azaspiro[3.4]oct-6-en-7-yl)benzamide], which IC50 is on record?
Its IC50 is 58 nM.

Cc1ccc(-c2cc(C(=O)N[C@H](C)c3ccc(C(F)(F)F)nc3)cc(C3=NO[C@H](c4ccccn4)C3)c2)nc1 [3-(5-methylpyridin-2-yl)-5-[(5S)-5-pyridin-2-yl-4,5-dihydroisoxazol-3-yl]-N-{(1R)-1-[6-(trifluoromethyl)pyridin-3-yl]ethyl}benzamide] was tested. Which IC50 did it give?
The IC50 was 10 nM.

How did the IC50 turn out when C[C@@H](NC(=O)c1cc(C2=NO[C@H](c3ccccn3)C2)cc(-c2ccc(Cl)cn2)c1)c1ccc(F)cn1 [3-(5-chloropyridin-2-yl)-N-[(1R)-1-(5-fluoropyridin-2-yl)ethyl]-5-[(5S)-5-pyridin-2-yl-4,5-dihydroisoxazol-3-yl]benzamide] was run?
The IC50 was 110 nM.

From patent US8461185B2, “P2X3 receptor antagonists for treatment of pain” (Merck Sharp & Dohme Corp., priority 2007, dated 2013)
